System: TPA-induced mouse ear edema
Test: TPA-induced mouse ear edema test, single topical application
Format: in vivo
Conditions: Balb/c mice
Method: Evaluation of the Anti-Inflammatory Activity of Apratastat after a Single Topical Application in the TPA-Induced Mouse Ear Edema Test on Balb/c Mice (TPA=Tetradecanoylphorbol Acetate)
Edema is induced by single application of 20 μl of TPA dissolved in acetone at 0.01%.
The test compound is diluted in a TPA solution and applied at a concentration of 0.1%, 0.3% to 1%.
A positive control, betamethasone valerate (VdB), is also tested.
The thickness of the mouse ear is measured at T+6 h.

Compound	reduction in the edema of the ear (single topical application at 0.01%, diluted in TPA solution, ear thickness at T+6 h) [%]	reduction of the edema of the ear induced by TPA (single topical application at 0.1% in TPA solution, ear thickness at T+6 h, NS) [%]	reduction of the edema of the ear induced by TPA (single topical application at 0.3% in TPA solution, ear thickness at T+6 h, **) [%]	reduction of the edema of the ear induced by TPA (single topical application at 1% in TPA solution, ear thickness at T+6 h, **) [%]	anti-inflammatory effect (in words) (single topical application, 0.1% to 1%, TPA-induced ear edema)
CCCCC(=O)O[C@]1(C(=O)CO)[C@@H](C)C[C@H]2[C@@H]3CCC4=CC(=O)C=C[C@]4(C)[C@@]3(F)[C@@H](O)C[C@@]21C [betamethasone valerate, reference compound]	93				
CC1(C)SCCN(S(=O)(=O)c2ccc(OCC#CCO)cc2)[C@H]1C(=O)NO [Apratastat, (3S)—N-hydroxy-4-({4-[(4-hydroxy-2-butynyl)oxy]phenyl}sulfonyl)-2,2-dimethyl-3-thiomorpholinecarboxamide]		25	47	49	dose-dependent anti-inflammatory effect
